Measurements taken from PubChem BioAssay AID1919013 (Molecular Pharmacology Branch, DTP, NCI, 2023).
Several values for one entry are separate records, joined by “and”; a condition that tells them apart may be missing. Identical values can stand only once. Values belong to the compound of their own block, whether it stands above or below them.

Test system: LG0703-F498-PDC complex spheroid growth
Test: Anticancer human tumor LG0703-F498-PDC patient-derived lung adenocarcinoma cell line growth inhibition [AhR]
Conditions: for viability, T/C: stronger effect = lower value
Summary of the method: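 Agents were dosed in half-log steps down from roughly clinical Cmax, or from 10 microM where Cmax was unknown, alone and with AhR antagonists. Read-out: percent test/control growth of tumor spheroids containing HUVEC and MSC stromal cells.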

[1] = curve of first compound, second compound 0.1 µM
[2] = curve of first compound, second compound 0.316 µM
[3] = curve of first compound, second compound 1 µM
[4] = curve of first compound, second compound 3.16 µM
[5] = curve of first compound, second compound 10 µM
[6] = second compound 0.1 µM, first compound 0.0316 µM
[7] = second compound 0.1 µM, first compound 0.1 µM
[8] = second compound 0.1 µM, first compound 0.316 µM
[9] = second compound 0.1 µM, first compound 1 µM
[10] = second compound 0.1 µM, first compound 3.16 µM
[11] = second compound 0.1 µM, first compound 10 µM
[12] = second compound 0.316 µM, first compound 0.0316 µM
[13] = second compound 0.316 µM, first compound 0.1 µM
[14] = second compound 0.316 µM, first compound 0.316 µM
[15] = second compound 0.316 µM, first compound 1 µM
[16] = second compound 0.316 µM, first compound 3.16 µM
[17] = second compound 0.316 µM, first compound 10 µM
[18] = second compound 1 µM, first compound 0.0316 µM
[19] = second compound 1 µM, first compound 0.1 µM
[20] = second compound 1 µM, first compound 0.316 µM
[21] = second compound 1 µM, first compound 1 µM
[22] = second compound 1 µM, first compound 3.16 µM
[23] = second compound 1 µM, first compound 10 µM
[24] = second compound 3.16 µM, first compound 0.0316 µM
[25] = second compound 3.16 µM, first compound 0.1 µM
[26] = second compound 3.16 µM, first compound 0.316 µM
[27] = second compound 3.16 µM, first compound 1 µM
[28] = second compound 3.16 µM, first compound 3.16 µM
[29] = second compound 3.16 µM, first compound 10 µM
[30] = second compound 10 µM, first compound 0.0316 µM
[31] = second compound 10 µM, first compound 0.1 µM
[32] = second compound 10 µM, first compound 0.316 µM
[33] = second compound 10 µM, first compound 1 µM
[34] = second compound 10 µM, first compound 3.16 µM
[35] = second compound 10 µM, first compound 10 µM
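Further: luminescence taken as a proxy for viable cell amount.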
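Wherever viability, T/C is given: percent of DMSO vehicle control where 100% means growth equal to vehicle.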

Structure (SMILES): Nc1ncn(C2CC(O)C(CO)S2)c(=O)n1 (configuration not stated) + CC(CO)NC(=O)c1cc(-c2ccc(Cl)cc2)nn(-c2cnn(C)c2)c1=O
- IC50 [1]: > 0.3 µM
- IC50 [2]: > 0.3 µM
- IC50 [3]: > 0.3 µM
- IC50 [4]: > 0.3 µM
- IC50 [5]: > 0.3 µM
- viability, T/C (second compound 0.1 µM, first compound 0.000949 µM): 89.3%
- viability, T/C (second compound 0.1 µM, first compound 0.003 µM): 96.6%
- viability, T/C (second compound 0.1 µM, first compound 0.00949 µM): 95.6%
- viability, T/C (second compound 0.1 µM, first compound 0.03 µM): 102%
- viability, T/C (second compound 0.1 µM, first compound 0.0949 µM): 92.8%
- viability, T/C (second compound 0.1 µM, first compound 0.3 µM): 91.8%
- viability, T/C (second compound 0.316 µM, first compound 0.000949 µM): 108%
- viability, T/C (second compound 0.316 µM, first compound 0.003 µM): 93.9%
- viability, T/C (second compound 0.316 µM, first compound 0.00949 µM): 96.2%
- viability, T/C (second compound 0.316 µM, first compound 0.03 µM): 103%
- viability, T/C (second compound 0.316 µM, first compound 0.0949 µM): 97.1%
- viability, T/C (second compound 0.316 µM, first compound 0.3 µM): 97.8%
- viability, T/C (second compound 1 µM, first compound 0.000949 µM): 82.4%
- viability, T/C (second compound 1 µM, first compound 0.003 µM): 92%
- viability, T/C (second compound 1 µM, first compound 0.00949 µM): 90.2%
- viability, T/C (second compound 1 µM, first compound 0.03 µM): 76.9%
- viability, T/C (second compound 1 µM, first compound 0.0949 µM): 84.8%
- viability, T/C (second compound 1 µM, first compound 0.3 µM): 97.7%
- viability, T/C (second compound 3.16 µM, first compound 0.000949 µM): 80.5%
- viability, T/C (second compound 3.16 µM, first compound 0.003 µM): 90.9%
- viability, T/C (second compound 3.16 µM, first compound 0.00949 µM): 78.3%
- viability, T/C (second compound 3.16 µM, first compound 0.03 µM): 94.8%
- viability, T/C (second compound 3.16 µM, first compound 0.0949 µM): 96.1%
- viability, T/C (second compound 3.16 µM, first compound 0.3 µM): 89.5%
- viability, T/C (second compound 10 µM, first compound 0.000949 µM): 86.9%
- viability, T/C (second compound 10 µM, first compound 0.003 µM): 86.7%
- viability, T/C (second compound 10 µM, first compound 0.00949 µM): 84.9%
- viability, T/C (second compound 10 µM, first compound 0.03 µM): 86.7%
- viability, T/C (second compound 10 µM, first compound 0.0949 µM): 81.9%
- viability, T/C (second compound 10 µM, first compound 0.3 µM): 92.2%

Structure (SMILES): Nc1ncn(C2CC(O)C(CO)S2)c(=O)n1 (configuration not stated)
- viability, T/C (compound 0.000949 µM): 103% and 105% and 108%
- viability, T/C (compound 0.003 µM): 92.8% and 98.3% and 109%
- viability, T/C (compound 0.00949 µM): 95.4% and 103% and 105%
- viability, T/C (compound 0.03 µM): 99.9% and 97.8% and 99.8%
- viability, T/C (compound 0.0949 µM): 113% (2×) and 107%
- viability, T/C (compound 0.3 µM): 97.1% and 96.6% and 98.7%
- IC50 (curve of compound): > 0.3 µM

Structure (SMILES): Cn1ncnc1C1c2n[nH]c(=O)c3cc(F)cc(c23)NC1c1ccc(F)cc1 (configuration not stated) + Cc1cncc(-c2nc(NCCc3c[nH]c4ccccc34)c3ncn(C(C)C)c3n2)c1
- IC50 [1]: > 0.1 µM
- IC50 [2]: > 0.1 µM
- IC50 [3]: > 0.1 µM
- IC50 [4]: < 0.000316 µM
- IC50 [5]: < 0.000316 µM
- viability, T/C (second compound 0.1 µM, first compound 0.000316 µM): 101%
- viability, T/C (second compound 0.1 µM, first compound 0.001 µM): 93.3%
- viability, T/C (second compound 0.1 µM, first compound 0.00316 µM): 93.2%
- viability, T/C (second compound 0.1 µM, first compound 0.01 µM): 93.8%
- viability, T/C [6]: 91.3%
- viability, T/C [7]: 82.6%
- viability, T/C (second compound 0.316 µM, first compound 0.000316 µM): 94.6%
- viability, T/C (second compound 0.316 µM, first compound 0.001 µM): 108%
- viability, T/C (second compound 0.316 µM, first compound 0.00316 µM): 98.4%
- viability, T/C (second compound 0.316 µM, first compound 0.01 µM): 98.5%
- viability, T/C [12]: 104%
- viability, T/C [13]: 89.1%
- viability, T/C (second compound 1 µM, first compound 0.000316 µM): 103%
- viability, T/C (second compound 1 µM, first compound 0.001 µM): 116%
- viability, T/C (second compound 1 µM, first compound 0.00316 µM): 100%
- viability, T/C (second compound 1 µM, first compound 0.01 µM): 106%
- viability, T/C [18]: 109%
- viability, T/C [19]: 95.7%
- viability, T/C (second compound 3.16 µM, first compound 0.000316 µM): 49.3%
- viability, T/C (second compound 3.16 µM, first compound 0.001 µM): 47%
- viability, T/C (second compound 3.16 µM, first compound 0.00316 µM): 58.2%
- viability, T/C (second compound 3.16 µM, first compound 0.01 µM): 42.4%
- viability, T/C [24]: 48%
- viability, T/C [25]: 54%
- viability, T/C (second compound 10 µM, first compound 0.000316 µM): 1.14%
- viability, T/C (second compound 10 µM, first compound 0.001 µM): 1.01%
- viability, T/C (second compound 10 µM, first compound 0.00316 µM): 1.11%
- viability, T/C (second compound 10 µM, first compound 0.01 µM): 1.03%
- viability, T/C [30]: 1.15%
- viability, T/C [31]: 1.54%

Now from value to compound, other results behind:

- IC50 [1]: 6.88 µM
- IC50 [2]: 8.34 µM
- IC50 [3]: 5.11 µM
- IC50 [4]: 4.36 µM
- IC50 [5]: 3.25 µM
Structure (SMILES): COc1cc(Nc2ncc3c(n2)-c2ccc(Cl)cc2C(c2c(F)cccc2OC)=NC3)ccc1C(=O)O + CC(CO)NC(=O)c1cc(-c2ccc(Cl)cc2)nn(-c2cnn(C)c2)c1=O
- viability, T/C [6]: 87.2%
- viability, T/C [7]: 88.2%
- viability, T/C [8]: 78.5%
- viability, T/C [9]: 71%
- viability, T/C [10]: 61.7%
- viability, T/C [11]: 44.4%
- viability, T/C [12]: 94.9%
- viability, T/C [13]: 79.2%
- viability, T/C [14]: 78.9%
- viability, T/C [15]: 70.2%
- viability, T/C [16]: 56.3%
- viability, T/C [17]: 48.8%
- viability, T/C [18]: 91.6%
- viability, T/C [19]: 96.2%
- viability, T/C [20]: 75.1%
- viability, T/C [21]: 68.2%
- viability, T/C [22]: 56.4%
- viability, T/C [23]: 42.7%
- viability, T/C [24]: 91.6%
- viability, T/C [25]: 75.2%
- viability, T/C [26]: 70.7%
- viability, T/C [27]: 63.9%
- viability, T/C [28]: 50.3%
- viability, T/C [29]: 44.5%
- viability, T/C [30]: 92%
- viability, T/C [31]: 77.4%
- viability, T/C [32]: 65%
- viability, T/C [33]: 65%
- viability, T/C [34]: 52.7%
- viability, T/C [35]: 37.6%

- IC50 [1]: > 10 µM
- IC50 [2]: > 10 µM
- IC50 [3]: > 10 µM
- IC50 [4]: > 10 µM
- IC50 [5]: > 10 µM
Structure (SMILES): CC1COCCN1c1cc(C2(S(C)(=N)=O)CC2)nc(-c2ccnc3[nH]ccc23)n1 (configuration not stated) + CC(CO)NC(=O)c1cc(-c2ccc(Cl)cc2)nn(-c2cnn(C)c2)c1=O
- viability, T/C [6]: 101%
- viability, T/C [7]: 91.6%
- viability, T/C [8]: 89.7%
- viability, T/C [9]: 99.3%
- viability, T/C [10]: 79.1%
- viability, T/C [11]: 63.4%
- viability, T/C [12]: 92.6%
- viability, T/C [13]: 91.7%
- viability, T/C [14]: 93.7%
- viability, T/C [15]: 90.2%
- viability, T/C [16]: 86%
- viability, T/C [17]: 53.1%
- viability, T/C [18]: 97.8%
- viability, T/C [19]: 92.8%
- viability, T/C [20]: 88.3%
- viability, T/C [21]: 91%
- viability, T/C [22]: 68.8%
- viability, T/C [23]: 60%
- viability, T/C [24]: 89.9%
- viability, T/C [25]: 89%
- viability, T/C [26]: 95.8%
- viability, T/C [27]: 82.3%
- viability, T/C [28]: 79.1%
- viability, T/C [29]: 59.1%
- viability, T/C [30]: 76.1%
- viability, T/C [31]: 95.3%
- viability, T/C [32]: 73.8%
- viability, T/C [33]: 83.7%
- viability, T/C [34]: 59.6%
- viability, T/C [35]: 51.3%

- IC50 [1]: > 10 µM
- IC50 [2]: > 10 µM
- IC50 [3]: 9.33 µM
- IC50 [4]: < 0.0316 µM
- IC50 [5]: < 0.0316 µM
Structure (SMILES): CC1COCCN1c1cc(C2(S(C)(=N)=O)CC2)nc(-c2ccnc3[nH]ccc23)n1 (configuration not stated) + Cc1cncc(-c2nc(NCCc3c[nH]c4ccccc34)c3ncn(C(C)C)c3n2)c1
- viability, T/C [6]: 107%
- viability, T/C [7]: 104%
- viability, T/C [8]: 92.5%
- viability, T/C [9]: 96.4%
- viability, T/C [10]: 97.2%
- viability, T/C [11]: 59.2%
- viability, T/C [12]: 92.4%
- viability, T/C [13]: 110%
- viability, T/C [14]: 105%
- viability, T/C [15]: 110%
- viability, T/C [16]: 89.7%
- viability, T/C [17]: 54.5%
- viability, T/C [18]: 107%
- viability, T/C [19]: 91.2%
- viability, T/C [20]: 101%
- viability, T/C [21]: 94.8%
- viability, T/C [22]: 89.9%
- viability, T/C [23]: 46.9%
- viability, T/C [24]: 18%
- viability, T/C [25]: 18.5%
- viability, T/C [26]: 25%
- viability, T/C [27]: 17.1%
- viability, T/C [28]: 13.5%
- viability, T/C [29]: 8.17%
- viability, T/C [30]: 1.76%
- viability, T/C [31]: 1.78%
- viability, T/C [32]: 1.04%
- viability, T/C [33]: 1.58%
- viability, T/C [34]: 0.93%
- viability, T/C [35]: 1.14%
